Patent publication US8173635B2, “Kinase inhibitors” (Vertex Pharmaceuticals Incorporated, priority 2007, dated 2012)

Tests used:
Format in all cases: biochemical
[1] = target: PKC theta kinase (Homo sapiens, UniProt Q04759); assay: PKC theta kinase inhibition, coupled-enzyme NADH absorbance assay (Ki); conditions: 240 μM ATP, 18 nM PKC theta, 30° C.; read-out: Ki PKC theta
Method in brief: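 Coupled-enzyme kinase assay following NADH absorbance at 340 nm, in 100 mM HEPES pH 7.5, 10 mM MgCl2, 25 mM NaCl, 0.1 mM EDTA, 0.01% Brij. Compound in DMSO preincubated with enzyme 10 min at 30 °C. Ki from initial rates by non-linear regression.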

[2] = target: PKC delta kinase (Homo sapiens, UniProt Q05655); assay: PKC delta kinase inhibition, coupled-enzyme NADH absorbance assay (Ki); conditions: 150 μM ATP, 46 nM PKC delta, 30° C.; read-out: Ki PKC delta
Chain of PKC delta kinase (Q05655 whole entry): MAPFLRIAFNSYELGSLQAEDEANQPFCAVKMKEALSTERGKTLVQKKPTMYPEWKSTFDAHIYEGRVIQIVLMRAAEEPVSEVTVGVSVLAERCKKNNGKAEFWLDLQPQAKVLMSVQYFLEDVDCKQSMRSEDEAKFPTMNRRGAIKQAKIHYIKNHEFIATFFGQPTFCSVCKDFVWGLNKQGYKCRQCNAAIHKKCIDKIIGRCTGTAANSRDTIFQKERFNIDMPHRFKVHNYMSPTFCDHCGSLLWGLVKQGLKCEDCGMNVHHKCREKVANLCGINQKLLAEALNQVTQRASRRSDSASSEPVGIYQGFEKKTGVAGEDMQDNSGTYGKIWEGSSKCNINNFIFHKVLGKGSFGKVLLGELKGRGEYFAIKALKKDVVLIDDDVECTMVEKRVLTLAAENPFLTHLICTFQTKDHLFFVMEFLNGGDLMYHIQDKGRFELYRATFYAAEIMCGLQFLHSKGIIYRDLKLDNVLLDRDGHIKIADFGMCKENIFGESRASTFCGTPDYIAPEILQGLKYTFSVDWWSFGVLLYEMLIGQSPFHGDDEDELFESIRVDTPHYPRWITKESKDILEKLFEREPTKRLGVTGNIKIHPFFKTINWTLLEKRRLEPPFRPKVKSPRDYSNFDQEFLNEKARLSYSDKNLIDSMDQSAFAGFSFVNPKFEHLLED
Method in brief: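 Assay buffer was 100 mM HEPES pH 7.5, 10 mM MgCl2, 25 mM NaCl, 0.1 mM EDTA, 0.01% Brij. Enzyme buffer was equilibrated with compound in DMSO for 10 min at 30 °C. Ki values were derived by non-linear regression of initial rate data.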

[3] = target: PKC alpha kinase (Homo sapiens, UniProt P17252); assay: PKC alpha kinase inhibition, coupled-enzyme NADH absorbance assay (Ki); conditions: 130 μM ATP, 4.5 nM PKC alpha, 30° C.; read-out: Ki PKC alpha

Chain of PKC theta kinase (Q04759 whole entry): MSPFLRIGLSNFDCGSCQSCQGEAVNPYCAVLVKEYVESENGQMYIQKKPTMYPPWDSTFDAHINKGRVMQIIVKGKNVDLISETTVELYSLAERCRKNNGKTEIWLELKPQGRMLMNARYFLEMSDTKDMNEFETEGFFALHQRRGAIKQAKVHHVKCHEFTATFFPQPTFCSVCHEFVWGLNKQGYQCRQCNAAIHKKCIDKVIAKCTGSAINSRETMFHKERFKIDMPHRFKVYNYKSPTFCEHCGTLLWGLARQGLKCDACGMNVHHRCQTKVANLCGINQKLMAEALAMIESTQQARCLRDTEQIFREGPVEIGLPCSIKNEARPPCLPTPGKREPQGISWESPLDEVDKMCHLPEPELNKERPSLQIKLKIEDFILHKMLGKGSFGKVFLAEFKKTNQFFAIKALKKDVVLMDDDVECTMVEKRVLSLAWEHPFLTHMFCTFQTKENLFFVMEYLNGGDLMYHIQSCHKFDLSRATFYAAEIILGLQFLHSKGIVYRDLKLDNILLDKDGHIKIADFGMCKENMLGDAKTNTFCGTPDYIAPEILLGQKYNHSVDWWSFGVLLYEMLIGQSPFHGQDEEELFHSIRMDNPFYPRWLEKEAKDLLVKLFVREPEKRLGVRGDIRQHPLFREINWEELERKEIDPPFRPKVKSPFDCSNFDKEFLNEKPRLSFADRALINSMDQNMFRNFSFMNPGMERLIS

Compound	Ki [1] [nM]	Ki [2] [nM]	Ki [3] [nM]
C/C=C\C1(c2cccc(-c3ccnc4[nH]ncc34)c2)CCNC1 (stereo not drawn) [Compound 197]	< 50	< 500	< 500
CC(C)CC(C)(CN)c1cccc(-c2ccnc3[nH]ncc23)c1 (stereo not drawn) [Compound 45]	< 50	< 500	< 500
OCC1CCc2ccc(-c3ccnc4[nH]ncc34)cc21 (stereo not drawn) [Compound 203, (6-(1H-Pyrazolo[3,4-b]pyridin-4-yl)-2,3-dihydro-1H-inden-1-yl)methanol]	< 2800	> 2800	> 2800
NC[C@]1(c2cccc(-c3ccnc4[nH]ncc34)c2)CC[C@H](O)CC1 [Compound 183]	< 500	< 2800	> 1200
N#CC1(c2cccc(-c3ccnc4[nH]nc(C(F)(F)F)c34)c2)CC1 [Compound 273]	< 50	< 500	< 500
NCC1(c2cccc(-c3ccnc4[nH]ncc34)c2)CC(F)(F)C1 [Compound 235]	< 50	< 500	> 1200
CCC(C)(CN)c1cc(-c2ccnc3[nH]ncc23)cc(C(F)(F)F)c1 (stereo not drawn) [Compound 139]	< 50	< 500	< 500
OCc1cccc(-c2ccnc3[nH]ncc23)c1 [Compound 322]	> 700	> 1200	> 1200
COCC[C@@](C)(CN)c1cccc(-c2ccnc3[nH]nc(C(F)(F)F)c23)c1 [Compound 286]	< 50	< 500	< 500
N#CC1(c2cc(-c3ccnc4[nH]ncc34)cc(C(F)(F)F)c2)CCC1 [Compound 92]	< 500	> 2800	< 2800
NCC1CCc2ccc(-c3ccnc4[nH]ncc34)cc21 (stereo not drawn) [Compound 308]	< 500	< 500	> 1200
CCC(C)(CN)c1cccc(-c2ccnc3[nH]nc(C(F)(F)F)c23)c1 (stereo not drawn) [Compound 213, 2-methyl-2-(3-(3-(trifluoromethyl)-1H-pyrazolo[3,4-b]pyridin-4-yl)phenyl)butan-1-amine]	< 50	< 50	< 50
NC(CCC1CCCC1)c1cccc(-c2ccnc3[nH]ncc23)c1 (stereo not drawn) [Compound 253]	> 700	> 1200	> 1200
CCC(C)(CC#N)c1cc(-c2ccnc3[nH]ncc23)cc(C(F)(F)CCC2CCCC2)c1 (stereo not drawn) [Compound 239]	> 700	> 2000	> 1200
